Assay results: ChEMBL document CHEMBL4715821, “Discovery of 4-ethoxy-7H-pyrrolo[2,3-d]pyrimidin-2-amines as potent, selective and orally bioavailable LRRK2 inhibitors” (Bioorg Med Chem Lett, 2018)

How the values were obtained:
[1] = biological target: Nuclear receptor subfamily 1 group I member 2 (Homo sapiens, UniProt O75469); test: Inhibition of human PXR
[2] = In vivo inhibition of LRRK2 in Han-Wistar rat assessed as reduction in Ser935 phosphorylation in brain at 100 mg/kg, po by Western blot analysis; assay type: functional; parameters: scale not given: the % may be the effect or the level left
[3] = biological target: Aurora kinase B (Homo sapiens) (UniProt Q96GD4); test: Inhibition of wild-type human partial length AURKB (D25 to A303 residues) expressed in mammalian expression system assessed as residual activity at 1 uM by Kinomescan method relative to control
[4] = biological target: Calcium/calmodulin-dependent protein kinase type 1D (Homo sapiens) (UniProt Q8IU85); test: Inhibition of wild-type human partial length CAMK1D (M1 to K299 residues) expressed in bacterial expression system assessed as residual activity at 1 uM by Kinomescan method relative to control
[5] = biological target: CDK3/Cyclin E (Homo sapiens) (UniProt P24864+Q00526); test: Inhibition of wild-type human full length CDK3 (M1 to H305 residues)/Cyclin E expressed in bacterial expression system at 1 uM by Kinomescan method; parameters: scale not given: the % may be the effect or the level left
[6] = biological target: Dual specificity protein kinase CLK4 (Homo sapiens) (UniProt Q9HAZ1); test: Inhibition of wild-type human partial length CLK4 (R135 to K481 residues) expressed in bacterial expression system assessed as residual activity at 1 uM by Kinomescan method relative to control
[7] = biological target: Death-associated protein kinase 1 (Homo sapiens) (UniProt P53355); test: Inhibition of wild-type human partial length DAPK1 (M1 to F296 residues) expressed in bacterial expression system assessed as residual activity at 1 uM by Kinomescan method relative to control
[8] = biological target: Ephrin type-A receptor 7 (Homo sapiens) (UniProt Q15375); test: Inhibition of wild-type human partial length EPHA7 (Y608 to S912 residues) expressed in bacterial expression system assessed as residual activity at 1 uM by Kinomescan method relative to control
[9] = biological target: Homeodomain-interacting protein kinase 1 (Homo sapiens) (UniProt Q86Z02); test: Inhibition of wild-type human partial length HIPK1 (M146 to I555 residues) expressed in mammalian expression system assessed as residual activity at 1 uM by Kinomescan method relative to control
Homeodomain-interacting protein kinase 1 (Homo sapiens), sequence (Q86Z02 whole entry, looked up, the tested form may be a part): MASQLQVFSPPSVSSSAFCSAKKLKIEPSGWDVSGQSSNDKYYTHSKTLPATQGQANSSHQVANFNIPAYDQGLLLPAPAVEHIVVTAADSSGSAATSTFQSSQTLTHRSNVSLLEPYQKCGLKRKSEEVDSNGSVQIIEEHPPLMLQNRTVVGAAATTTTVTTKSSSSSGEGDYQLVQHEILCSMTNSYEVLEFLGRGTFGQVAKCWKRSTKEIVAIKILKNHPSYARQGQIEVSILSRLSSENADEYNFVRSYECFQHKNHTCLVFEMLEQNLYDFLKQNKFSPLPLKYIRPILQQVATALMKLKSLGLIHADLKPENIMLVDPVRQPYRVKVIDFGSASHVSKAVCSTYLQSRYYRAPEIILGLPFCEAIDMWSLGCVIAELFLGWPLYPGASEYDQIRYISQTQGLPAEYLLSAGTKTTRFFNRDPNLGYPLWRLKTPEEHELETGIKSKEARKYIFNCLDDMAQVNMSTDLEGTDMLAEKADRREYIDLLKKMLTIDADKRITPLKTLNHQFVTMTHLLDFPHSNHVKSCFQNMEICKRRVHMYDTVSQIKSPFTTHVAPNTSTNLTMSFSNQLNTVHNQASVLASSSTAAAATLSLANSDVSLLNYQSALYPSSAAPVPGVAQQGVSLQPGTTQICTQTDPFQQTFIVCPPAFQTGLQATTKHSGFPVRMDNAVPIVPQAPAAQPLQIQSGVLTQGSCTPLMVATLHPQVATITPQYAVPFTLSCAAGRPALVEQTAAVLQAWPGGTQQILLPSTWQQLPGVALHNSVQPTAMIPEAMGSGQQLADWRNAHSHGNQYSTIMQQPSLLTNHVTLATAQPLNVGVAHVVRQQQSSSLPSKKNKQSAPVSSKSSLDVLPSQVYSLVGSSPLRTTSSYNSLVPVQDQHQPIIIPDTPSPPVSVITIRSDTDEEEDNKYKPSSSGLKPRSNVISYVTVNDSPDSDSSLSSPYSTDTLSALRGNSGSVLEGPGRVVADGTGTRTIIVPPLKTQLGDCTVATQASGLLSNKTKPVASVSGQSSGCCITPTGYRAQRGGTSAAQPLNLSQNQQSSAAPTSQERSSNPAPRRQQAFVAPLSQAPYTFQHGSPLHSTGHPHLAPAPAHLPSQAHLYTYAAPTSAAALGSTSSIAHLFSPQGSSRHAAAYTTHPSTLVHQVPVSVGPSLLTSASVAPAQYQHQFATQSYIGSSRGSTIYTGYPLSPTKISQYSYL

[10] = biological target: Inhibitor of nuclear factor kappa-B kinase subunit alpha (Homo sapiens) (UniProt O15111); test: Inhibition of wild-type human full length IKK-alpha (M1 to E745 residues) expressed in mammalian expression system assessed as residual activity at 1 uM by Kinomescan method relative to control
[11] = biological target: Mitogen-activated protein kinase 9 (Homo sapiens) (UniProt P45984); test: Inhibition of wild-type human full length JNK2 (M1 to Q382 residues) expressed in mammalian expression system assessed as residual activity at 1 uM by Kinomescan method relative to control
Mitogen-activated protein kinase 9 (Homo sapiens), sequence (P45984 whole entry, looked up, the tested form may be a part): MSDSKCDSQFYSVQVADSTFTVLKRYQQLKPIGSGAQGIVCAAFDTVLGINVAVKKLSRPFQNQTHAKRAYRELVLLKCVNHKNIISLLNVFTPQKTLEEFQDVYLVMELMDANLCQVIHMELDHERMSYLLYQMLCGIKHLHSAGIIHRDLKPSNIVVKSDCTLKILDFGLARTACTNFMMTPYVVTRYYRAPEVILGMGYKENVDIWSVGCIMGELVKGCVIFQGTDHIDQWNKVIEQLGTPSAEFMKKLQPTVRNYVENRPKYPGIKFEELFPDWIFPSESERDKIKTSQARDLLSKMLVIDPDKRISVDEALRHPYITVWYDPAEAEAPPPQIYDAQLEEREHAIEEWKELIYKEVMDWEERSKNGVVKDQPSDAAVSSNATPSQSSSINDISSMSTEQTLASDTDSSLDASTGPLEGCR

[12] = biological target: LIM domain kinase 1 (Homo sapiens) (UniProt P53667); test: Inhibition of wild-type human full length LIMK1 (M1 to D647 residues) expressed in bacterial expression system assessed as residual activity at 1 uM by Kinomescan method relative to control
[13] = biological target: Serine/threonine-protein kinase MRCK alpha (Homo sapiens) (UniProt Q5VT25); test: Inhibition of wild-type human partial length MRCKA (L57 to V418 residues) expressed in bacterial expression system assessed as residual activity at 1 uM by Kinomescan method relative to control
[14] = biological target: Dual specificity mitogen-activated protein kinase kinase 2 (Homo sapiens) (UniProt P36507); test: Inhibition of wild-type human full length MEK2 (M1 to V400 residues) expressed in mammalian expression system assessed as residual activity at 1 uM by Kinomescan method relative to control
[15] = biological target: Mitogen-activated protein kinase kinase kinase 9 (Homo sapiens) (UniProt P80192); test: Inhibition of wild-type human partial length MLK1 (V88 to W426 residues) expressed in bacterial expression system assessed as residual activity at 1 uM by Kinomescan method relative to control
[16] = biological target: Serine/threonine-protein kinase PAK 2 (Homo sapiens) (UniProt Q13177); test: Inhibition of wild-type human partial length PAK2 (P151 to R525 residues) expressed in bacterial expression system assessed as residual activity at 1 uM by Kinomescan method relative to control
Serine/threonine-protein kinase PAK 2 (Homo sapiens), sequence (Q13177 whole entry, the tested form may be a part): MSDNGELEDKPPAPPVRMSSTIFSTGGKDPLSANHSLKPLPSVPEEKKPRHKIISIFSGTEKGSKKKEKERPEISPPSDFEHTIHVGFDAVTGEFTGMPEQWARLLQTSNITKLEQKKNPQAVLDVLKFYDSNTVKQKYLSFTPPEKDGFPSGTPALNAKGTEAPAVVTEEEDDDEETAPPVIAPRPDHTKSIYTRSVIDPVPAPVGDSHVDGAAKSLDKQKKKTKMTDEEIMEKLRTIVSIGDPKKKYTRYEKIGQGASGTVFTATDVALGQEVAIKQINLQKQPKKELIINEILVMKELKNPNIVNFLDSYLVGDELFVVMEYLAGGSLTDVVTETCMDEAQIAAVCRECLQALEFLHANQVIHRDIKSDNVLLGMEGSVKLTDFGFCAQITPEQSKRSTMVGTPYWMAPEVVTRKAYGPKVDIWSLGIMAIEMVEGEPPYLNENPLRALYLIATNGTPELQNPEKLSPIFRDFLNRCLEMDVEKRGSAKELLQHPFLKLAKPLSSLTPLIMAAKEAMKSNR

Homo sapiens = organism: Homo sapiens; test: Inhibition of PKA (unknown origin) assessed as residual activity at 1 uM by Kinomescan method relative to control
[17] = biological target: Proto-oncogene tyrosine-protein kinase receptor Ret (Homo sapiens) (UniProt P07949); test: Inhibition of wild-type human partial length RET (E713 to D1014 residues) expressed in bacterial expression system assessed as residual activity at 1 uM by Kinomescan method relative to control
[18] = biological target: Dual serine/threonine and tyrosine protein kinase (Homo sapiens) (UniProt Q6XUX3); test: Inhibition of wild-type human full length RIPK5 (M1 to T929 residues) expressed in mammalian expression system assessed as residual activity at 1 uM by Kinomescan method relative to control
[19] = biological target: Rho-associated protein kinase 1 (Homo sapiens) (UniProt Q13464); test: Inhibition of wild-type human partial length ROCK1 (M1 to R415 residues) expressed in mammalian expression system assessed as residual activity at 1 uM by Kinomescan method relative to control
[20] = biological target: Rho-associated protein kinase 2 (Homo sapiens) (UniProt O75116); test: Inhibition of wild-type human partial length ROCK2 (M1 to T431 residues) expressed in mammalian expression system assessed as residual activity at 1 uM by Kinomescan method relative to control
[21] = biological target: Testis-specific serine/threonine-protein kinase 1 (Homo sapiens) (UniProt Q9BXA7); test: Inhibition of wild-type human full length TSSK1B (M1 to Q367 residues) expressed in bacterial expression system assessed as residual activity at 1 uM by Kinomescan method relative to control
Testis-specific serine/threonine-protein kinase 1 (Homo sapiens), sequence (Q9BXA7 whole entry, the tested form may be a part): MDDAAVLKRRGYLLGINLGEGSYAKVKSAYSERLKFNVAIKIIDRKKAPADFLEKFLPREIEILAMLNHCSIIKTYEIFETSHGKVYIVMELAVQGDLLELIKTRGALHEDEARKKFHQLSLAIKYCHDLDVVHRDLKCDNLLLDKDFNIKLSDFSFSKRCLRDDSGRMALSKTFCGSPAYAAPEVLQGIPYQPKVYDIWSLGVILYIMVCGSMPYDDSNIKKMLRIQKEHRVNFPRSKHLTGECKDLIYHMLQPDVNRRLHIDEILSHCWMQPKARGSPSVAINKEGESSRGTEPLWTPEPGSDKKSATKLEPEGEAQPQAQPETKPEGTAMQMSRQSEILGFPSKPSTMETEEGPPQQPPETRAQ

[22] = biological target: Serine/threonine-protein kinase TAO2 (Homo sapiens) (UniProt Q9UL54); test: Inhibition of wild-type human partial length TAOK2 (M1 to A320 residues) expressed in mammalian expression system assessed as residual activity at 1 uM by Kinomescan method relative to control
[23] = biological target: Serine/threonine-protein kinase WNK3 (Homo sapiens) (UniProt Q9BYP7); test: Inhibition of wild-type human partial length WNK3 (M1 to D434 residues) expressed in mammalian expression system assessed as residual activity at 1 uM by Kinomescan method relative to control
[24] = biological target: Serine/threonine-protein kinase MRCK gamma (Homo sapiens) (UniProt Q6DT37); test: Inhibition of wild-type human partial length DMPK2 (S46 to S408 residues) expressed in bacterial expression system assessed as residual activity at 1 uM by Kinomescan method relative to control
[25] = biological target: Serine/threonine-protein kinase WNK1 (Homo sapiens) (UniProt Q9H4A3); test: Inhibition of wild-type human partial length WNK1 (Q194 to A490 residues) expressed in mammalian expression system assessed as residual activity at 1 uM by Kinomescan method relative to control
Serine/threonine-protein kinase WNK1 (Homo sapiens), sequence (Q9H4A3 whole entry, looked up, the tested form may be a part): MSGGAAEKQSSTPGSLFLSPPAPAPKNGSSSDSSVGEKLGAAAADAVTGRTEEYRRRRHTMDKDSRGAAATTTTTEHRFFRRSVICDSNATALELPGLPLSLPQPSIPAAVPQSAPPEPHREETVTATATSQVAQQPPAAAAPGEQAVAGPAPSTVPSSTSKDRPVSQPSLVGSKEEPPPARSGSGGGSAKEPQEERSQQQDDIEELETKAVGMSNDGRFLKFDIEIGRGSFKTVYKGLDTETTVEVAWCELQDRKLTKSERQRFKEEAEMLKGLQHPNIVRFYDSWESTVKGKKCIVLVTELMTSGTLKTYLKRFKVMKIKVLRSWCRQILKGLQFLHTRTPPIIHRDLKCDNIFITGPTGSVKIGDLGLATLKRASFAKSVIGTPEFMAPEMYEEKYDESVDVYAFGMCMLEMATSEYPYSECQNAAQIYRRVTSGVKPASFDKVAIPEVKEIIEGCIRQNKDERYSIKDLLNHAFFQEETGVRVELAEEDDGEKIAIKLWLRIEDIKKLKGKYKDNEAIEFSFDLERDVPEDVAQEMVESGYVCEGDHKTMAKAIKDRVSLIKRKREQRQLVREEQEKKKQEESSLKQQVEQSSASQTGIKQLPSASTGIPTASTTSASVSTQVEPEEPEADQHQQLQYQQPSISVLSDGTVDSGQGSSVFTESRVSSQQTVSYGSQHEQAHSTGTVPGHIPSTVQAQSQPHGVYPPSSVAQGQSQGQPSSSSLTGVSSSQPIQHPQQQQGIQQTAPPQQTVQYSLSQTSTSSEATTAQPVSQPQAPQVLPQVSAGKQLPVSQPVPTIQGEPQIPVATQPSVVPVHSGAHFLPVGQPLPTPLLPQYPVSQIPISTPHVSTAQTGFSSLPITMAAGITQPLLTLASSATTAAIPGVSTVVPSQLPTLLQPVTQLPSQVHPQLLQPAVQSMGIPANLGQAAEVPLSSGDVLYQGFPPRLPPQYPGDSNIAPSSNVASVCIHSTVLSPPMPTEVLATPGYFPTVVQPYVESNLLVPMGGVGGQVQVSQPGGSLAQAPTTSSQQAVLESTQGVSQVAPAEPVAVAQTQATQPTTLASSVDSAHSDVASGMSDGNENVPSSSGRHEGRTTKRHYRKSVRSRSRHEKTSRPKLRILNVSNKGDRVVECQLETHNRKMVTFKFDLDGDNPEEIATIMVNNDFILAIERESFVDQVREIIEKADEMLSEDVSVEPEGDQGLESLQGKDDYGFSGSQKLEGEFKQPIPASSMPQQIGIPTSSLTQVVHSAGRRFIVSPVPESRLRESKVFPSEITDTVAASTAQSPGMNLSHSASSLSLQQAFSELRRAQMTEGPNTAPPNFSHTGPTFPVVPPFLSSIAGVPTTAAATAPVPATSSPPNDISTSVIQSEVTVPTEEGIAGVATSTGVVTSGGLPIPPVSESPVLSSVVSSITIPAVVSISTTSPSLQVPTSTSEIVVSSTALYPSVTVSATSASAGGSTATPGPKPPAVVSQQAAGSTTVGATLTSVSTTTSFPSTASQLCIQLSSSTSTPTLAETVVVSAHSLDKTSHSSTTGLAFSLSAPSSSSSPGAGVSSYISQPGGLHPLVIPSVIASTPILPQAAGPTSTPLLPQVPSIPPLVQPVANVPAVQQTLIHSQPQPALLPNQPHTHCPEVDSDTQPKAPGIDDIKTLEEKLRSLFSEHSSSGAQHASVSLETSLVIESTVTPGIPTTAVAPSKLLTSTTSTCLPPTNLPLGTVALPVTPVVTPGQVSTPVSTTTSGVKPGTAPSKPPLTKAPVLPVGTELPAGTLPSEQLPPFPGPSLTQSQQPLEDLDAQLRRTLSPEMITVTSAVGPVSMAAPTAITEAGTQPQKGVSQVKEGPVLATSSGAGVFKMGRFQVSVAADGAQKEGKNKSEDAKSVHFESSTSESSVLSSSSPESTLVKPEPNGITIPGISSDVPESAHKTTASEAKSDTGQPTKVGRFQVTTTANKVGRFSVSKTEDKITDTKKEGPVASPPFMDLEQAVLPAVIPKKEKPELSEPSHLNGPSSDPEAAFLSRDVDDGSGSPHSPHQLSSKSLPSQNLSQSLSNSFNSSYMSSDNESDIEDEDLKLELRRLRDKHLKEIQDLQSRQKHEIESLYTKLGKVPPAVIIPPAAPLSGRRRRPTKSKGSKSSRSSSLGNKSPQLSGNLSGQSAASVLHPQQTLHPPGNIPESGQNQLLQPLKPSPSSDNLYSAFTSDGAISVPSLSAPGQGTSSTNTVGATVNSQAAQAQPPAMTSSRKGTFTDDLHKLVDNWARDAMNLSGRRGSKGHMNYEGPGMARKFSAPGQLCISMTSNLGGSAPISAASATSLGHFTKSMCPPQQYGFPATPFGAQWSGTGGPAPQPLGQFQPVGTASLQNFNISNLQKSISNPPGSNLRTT

`CCOc1nc(Nc2ccc(C(=O)N3CCOCC3)cc2OC)nc2[nH]ccc12` gave an EC50 [1] of over 50.1 µM, an Activity [2] of 75% and an Activity [3] of 90.7%. It also gave an Activity [4] of 122%, an Activity [5] of 87.7% and an Activity [6] of 35.5%. The Activity [7] was 64.9%, the Activity [8] was 97.8% and the Activity [9] was 108%. For the same compound, the Activity [10] was 85.3%, the Activity [11] was 43.1% and the Activity [12] was 98%. It also gave an Activity [13] of 99.4%, an Activity [14] of 94.5% and an Activity [15] of 83.9%. It also gave an Activity [16] of 95.3%, an Activity (Homo sapiens) of 103% and an Activity [17] of 101%. It also gave an Activity [18] of 111%, an Activity [19] of 94.2% and an Activity [20] of 91.3%. The Activity [21] was 2.41%, the Activity [22] was 103% and the Activity [23] was 71.8%. The Activity [24] was 106% and the Activity [25] was 78.5%.
